From patent publication US8022099B2, “N-benzyl pyrrolidine derivatives” (Hoffmann-La Roche Inc., priority 2008, dated 2011)
pKi: −log10 of the molar value.

Target: T1, human NK3 receptor (Homo sapiens, UniProt P29371)
T1 construct: expressed in transfected cells; host or cells: HEK293 cells (transient expression), membrane preparation
T1 sequence (P29371 1-465): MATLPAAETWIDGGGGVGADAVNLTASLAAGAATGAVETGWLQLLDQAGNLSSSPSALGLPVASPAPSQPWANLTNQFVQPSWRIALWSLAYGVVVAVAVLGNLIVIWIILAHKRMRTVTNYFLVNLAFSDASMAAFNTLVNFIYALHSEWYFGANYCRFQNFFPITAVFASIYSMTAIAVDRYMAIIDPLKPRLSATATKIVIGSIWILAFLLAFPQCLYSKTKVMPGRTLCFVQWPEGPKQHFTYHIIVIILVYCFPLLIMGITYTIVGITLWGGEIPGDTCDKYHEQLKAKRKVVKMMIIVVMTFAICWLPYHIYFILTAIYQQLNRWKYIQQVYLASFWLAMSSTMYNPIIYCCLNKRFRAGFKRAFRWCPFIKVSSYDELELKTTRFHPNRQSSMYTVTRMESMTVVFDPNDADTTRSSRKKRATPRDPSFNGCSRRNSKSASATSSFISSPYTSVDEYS
Test: [3H]SR142801 competition binding assay
Conditions: hNK3 receptor binding, [3H]SR142801, membranes from HEK293 cells transiently expressing recombinant human NK3 receptor
Protocol: [^3H]SR142801 Competition Binding Assay
hNK3 receptor binding experiment were performed using [^3H]SR142801 (Catalog No. TRK1035, specific activity: 74.0 Ci/mmol, Amersham, GE Healthcare UK limited, Buckinghamshire, UK) and membrane isolated from HEK293 cells transiently expressing recombinant human NK3 receptor. After thawing, the membrane homogenates were centrifuged at 48,000×g for 10 min at 4° C., the pellets were resuspended in the 50 mM Tris-HCl, 4 mM MnCl2, 1 μM phosphoramidon, 0.1% BSA binding buffer at pH 7.4 to a final assay concentration of 5 μg protein/well. For inhibition experiments, membranes were incubated with [^3H]SR142801 at a concentration equal to KD value of radioligand and 10 concentrations of the inhibitory compound (0.0003-10 μM) (in a total reaction volume of 500 μl) for 75 min at room temperature (RT). At the end of the incubation, membranes were filtered onto unitfilter (96-well white microplate with bonded GF/C filter preincubated 1 h in 0.3% PEI+0.3% BSA, Packard BioScience, Meriden, Conn.) with a Filtermate 196 harvester (Packard BioScience) and washed 4 times with ice-cold 50 mM Tris-HCl, pH 7.4 buffer. Nonspecific binding was measured in the presence of 10 μM SB222200 for both radioligands. The radioactivity on the filter was counted (5 min) on a Packard Top-count microplate scintillation counter with quenching correction after addition of 45 μl of microscint 40 (Canberra Packard S. A., Zürich, Switzerland) and shaking for 1 h. Inhibition curves were fitted according to the Hill equation: y=100/(1+(x/IC50)^nH), where nH=slope factor using Excel-fit 4 software (Microsoft). IC50 values were derived from the inhibition curve and the affinity constant (Ki) values were calculated using the Cheng-Prussoff equation Ki=IC50/(1+[L]/KD) where [L] is the concentration of radioligand and KD is its dissociation constant at the receptor, derived from the saturation isotherm. All experiments were performed in duplicate and the mean±standard error (SEM) of the individual Ki values was calculated.

| pKi | Structure (SMILES) |
| --- | --- |
| 7.02 | CN(C)CCNCC(=O)N1C[C@H](c2ccc(Cl)c(Cl)c2)[C@@H](N(C)Cc2ccc(C(F)(F)F)c(F)c2)C1 (racemic) [Example 124, 1-{(3SR,4RS)-3-(3,4-Dichloro-phenyl)-4-[(3-fluoro-4-trifluoromethyl-benzyl)-methyl-amino]-pyrrolidin-1-yl}-2-(2-dimethylamino-ethylamino)-ethanone] |
| 8.52 | CN(Cc1ccc(C(F)(F)F)c(F)c1)[C@H]1CN(C(=O)N2CCN(CCCO)CC2)C[C@@H]1c1ccc(Cl)c(Cl)c1 (racemic) [Example 66, {(3SR,4RS)-3-(3,4-Dichloro-phenyl)-4-[(3-fluoro-4-trifluoromethyl-benzyl)-methyl-amino]-pyrrolidin-1-yl}-[4-(3-hydroxy-propyl)-piperazin-1-yl]-methanone] |
| 7.86 | CN(Cc1ccc(C(F)(F)F)c(F)c1)[C@H]1CN(C(=O)CN2CCC(N3CCOCC3=O)CC2)C[C@@H]1c1ccc(Cl)c(Cl)c1 (racemic) [Example 145, 4-[1-(2-{(3SR,4RS)-3-(3,4-Dichloro-phenyl)-4-[(3-fluoro-4-trifluoromethyl-benzyl)-methyl-amino]-pyrrolidin-1-yl}-2-oxo-ethyl)-piperidin-4-yl]-morpholin-3-one] |
| 8.07 | CN(Cc1ccc(C(F)(F)F)c(F)c1)[C@H]1CN(C(=O)CCCCN2CCN(S(=O)(=O)N(C)C)CC2)C[C@@H]1c1ccc(Cl)c(Cl)c1 (racemic) [Example 90, 4-(5-{(3SR,4RS)-3-(3,4-Dichloro-phenyl)-4-[(3-fluoro-4-trifluoromethyl-benzyl)-methyl-amino]-pyrrolidin-1-yl}-5-oxo-pentyl)-piperazine-1-sulfonic acid dimethylamide] |
| 7.28 | CN(Cc1ccc(F)c(F)c1)[C@H]1CN(C(=O)N2CCN(S(C)(=O)=O)CC2)C[C@@H]1c1ccc(Cl)c(Cl)c1 (racemic) [Example 36, {(3SR,4RS)-3-(3,4-Dichloro-phenyl)-4-[(3,4-difluoro-benzyl)-methyl-amino]-pyrrolidin-1-yl}-(4-methanesulfonyl-piperazin-1-yl)-methanone] |
| 7.87 | CN(Cc1ccc(C(F)(F)F)c(F)c1)[C@H]1CN(C(=O)N2CCN(c3ncccc3C#N)CC2)C[C@@H]1c1ccc(Cl)c(Cl)c1 [Example 71, 2-(4-{(3S,4R)-3-(3,4-Dichloro-phenyl)-4-[(3-fluoro-4-trifluoromethyl-benzyl)-methyl-amino]-pyrrolidine-1-carbonyl}-piperazin-1-yl)-nicotinonitrile] |
| 7.60 | CC1CN(CC(=O)N2C[C@H](c3ccc(Cl)c(Cl)c3)[C@@H](N(C)Cc3ccc(C(F)(F)F)c(F)c3)C2)CC(C)N1 (mixture of isomers) [Example 139, 1-{(3SR,4RS)-3-(3,4-Dichloro-phenyl)-4-[(3-fluoro-4-trifluoromethyl-benzyl)-methyl-amino]-pyrrolidin-1-yl}-2-(3,5-dimethyl-piperazin-1-yl)-ethanone] |
| 7.49 | CN(Cc1ccc(C#N)cc1)[C@H]1CN(C(=O)N2CCN(S(C)(=O)=O)CC2)C[C@@H]1c1ccc(Cl)c(Cl)c1 (racemic) [Example 34, 4-({[(3RS,4SR)-4-(3,4-Dichloro-phenyl)-1-(4-methanesulfonyl-piperazine-1-carbonyl)-pyrrolidin-3-yl]-methyl-amino}-methyl)-benzonitrile] |
| 7.66 | CN(Cc1ccc(C#N)c(F)c1)[C@H]1CN(C(=O)N2CCN(S(C)(=O)=O)CC2)C[C@@H]1c1ccc(Cl)c(Cl)c1 (racemic) [Example 56, 4-({[(3RS,4SR)-4-(3,4-Dichloro-phenyl)-1-(4-methanesulfonyl-piperazine-1-carbonyl)-pyrrolidin-3-yl]-methyl-amino}-methyl)-2-fluoro-benzonitrile] |
| 8.72 | CN(Cc1ccc(C(F)(F)F)c(F)c1)[C@H]1CN(C(=O)N2CCN(c3ccc(C#N)cn3)CC2)C[C@@H]1c1ccc(Cl)c(Cl)c1 (racemic) [Example 73, 6-(4-{(3SR,4RS)-3-(3,4-Dichloro-phenyl)-4-[(3-fluoro-4-trifluoromethyl-benzyl)-methyl-amino]-pyrrolidine-1-carbonyl}-piperazin-1-yl)-nicotinonitrile] |
| 8.21 | CN(Cc1ccc(C(F)(F)F)c(F)c1)[C@H]1CN(C(=O)N2CCN(CCO)CC2)C[C@@H]1c1ccc(Cl)c(Cl)c1 (racemic) [Example 67, {(3SR,4RS)-3-(3,4-Dichloro-phenyl)-4-[(3-fluoro-4-trifluoromethyl-benzyl)-methyl-amino]-pyrrolidin-1-yl}-[4-(2-hydroxy-ethyl)-piperazin-1-yl]-methanone] |
| 8.22 | CN(Cc1ccc(C(F)(F)F)cc1)[C@H]1CN(C(=O)N2CCN(S(C)(=O)=O)CC2)C[C@@H]1c1ccc(Cl)c(Cl)c1 (racemic) [Example 83, {(3SR,4RS)-3-(3,4-Dichloro-phenyl)-4-[methyl-(4-trifluoromethyl-benzyl)-amino]-pyrrolidin-1-yl}-(4-methanesulfonyl-piperazin-1-yl)-methanone] |
| 7.96 | CN(Cc1ccc(C(F)(F)F)c(F)c1)[C@H]1CN(C(=O)CCCCN2CCOCC2)C[C@@H]1c1ccc(Cl)c(Cl)c1 (racemic) [Example 62, 1-{(3SR,4RS)-3-(3,4-Dichloro-phenyl)-4-[(3-fluoro-4-trifluoromethyl-benzyl)-methyl-amino]-pyrrolidin-1-yl}-5-morpholin-4-yl-pentan-1-one] |
| 7.34 | CN(Cc1ccc(C(F)(F)F)c(F)c1)[C@H]1CN(C(=O)CN2CCOCC2)C[C@@H]1c1ccc(Cl)c(Cl)c1 (racemic) [Example 113, 1-{(3SR,4RS)-3-(3,4-Dichloro-phenyl)-4-[(3-fluoro-4-trifluoromethyl-benzyl)-methyl-amino]-pyrrolidin-1-yl}-2-morpholin-4-yl-ethanone] |
| 7.11 | CN(C)CCCNCC(=O)N1C[C@H](c2ccc(Cl)c(Cl)c2)[C@@H](N(C)Cc2ccc(C(F)(F)F)c(F)c2)C1 (racemic) [Example 125, 1-{(3SR,4RS)-3-(3,4-Dichloro-phenyl)-4-[(3-fluoro-4-trifluoromethyl-benzyl)-methyl-amino]-pyrrolidin-1-yl}-2-(3-dimethylamino-propylamino)-ethanone] |
| 7.60 | CN(Cc1ccc(C(F)(F)F)c(F)c1)[C@H]1CN(C(=O)CN2C[C@@H]3C[C@@H]2CO3)C[C@@H]1c1ccc(Cl)c(Cl)c1 (mixture of isomers) [Example 148, 1-{(3SR,4RS)-3-(3,4-Dichloro-phenyl)-4-[(3-fluoro-4-trifluoromethyl-benzyl)-methyl-amino]-pyrrolidin-1-yl}-2-(1S,4R)-2-oxa-5-aza-bicyclo[2.2.1]hept-5-yl-ethanone] |
| 8.39 | CN(Cc1ccc(C(F)(F)F)c(F)c1)[C@H]1CN(C(=O)N2CCN(c3ccccn3)CC2)C[C@@H]1c1ccc(Cl)c(Cl)c1 (racemic) [Example 65, {(3SR,4RS)-3-(3,4-Dichloro-phenyl)-4-[(3-fluoro-4-trifluoromethyl-benzyl)-methyl-amino]-pyrrolidin-1-yl}-(4-pyridin-2-yl-piperazin-1-yl)-methanone] |
| 7.36 | CN(Cc1ccc(C(F)(F)F)c(F)c1)[C@H]1CN(C(=O)CN2CCS(=O)(=O)CC2)C[C@@H]1c1ccc(Cl)c(Cl)c1 [Example 135, 1-{(3S,4R)-3-(3,4-Dichloro-phenyl)-4-[(3-fluoro-4-trifluoromethyl-benzyl)-methyl-amino]-pyrrolidin-1-yl}-2-(1,1-dioxo-λ^6-thiomorpholin-4-yl)-ethanone] |
